According to patent US11612651B2, “Steroid acid-based immunogen enhancers” (priority 2021, dated 2023):

Experiments:
B3Z cells = assay: Antigen-presentation assay using the B3Z reporter system, BMDCs as antigen presenting cells; type: cell-based, mouse; conditions: BMDCs; molar ratio (bile acid/peptide/conjugate):antigen 4:1; mixed with OVA; FIG. 2
Text: For this experiment, BMDCs were used as the antigen presenting cells (n=6) and the molar ratio (bile acid/peptide/conjugate): antigen was 4:1. Controls tested included no antigen (“PBS”), antigen alone (“OVA alone”), unconjugated NLS peptide (“SV40NLS”), unconjugated cholic acid mixed with OVA (“CA”), and the positive control peptide SIINFEKL (SEQ ID NO: 9) mixed with OVA (“SIINFEKL”). The dashed line represents the signal obtained with OVA alone. Bile acids: cholic acid (CA); glycodeoxycholic acid (GDCA); glycochenodeoxycholic acid (GCDCA); ursodeoxycholic acid (UDCA); and lithocholic acid (LCA).
The dashed line represents the signal obtained with OVA alone. The readout was taken after 24 h of incubation and error bars represent SD (n=6). For this experiment, BMDCs were used as the antigen presenting cells.
The dashed line represents the signal obtained with OVA alone. Readout was taken after 24 h of incubation from a single experiment. The molar ratio of CA-peptide conjugate: OVA was 22:1. For this experiment, BMDCs were used as the antigen presenting cells.
For this experiment, BMDCs were used as the antigen presenting cells. The dashed line represents the signal obtained with OVA alone. Readout was taken after 24 h of incubation from a single experiment. The molar ratio of CA-peptide conjugate: OVA was as follows: CA-GWG-SV40NLS (12:1); CA-hnRNP M NLS (12:1); CA-NLS2-RPS17 NLS (22:1); CA-HuR NLS (22:1); CA-cMyc NLS (2:1); CA-NLS3-RPS17 NLS (22:1); CA-NLS2-RG-RPS17 NLS (2:1); CA-PQBP1 NLS (8:1); CA-hnRNPA1 M9 NLS (22:1); and CA-SV40 NLS (2:1).
Various bile acid-NLS conjugates were screened using the B3Z reporter system. The B3Z cell line is a T-cell hybridoma specific for the H2-K^b-SIINFEKL complex. Once activated via its TCR, the LacZ reporter gene (under the NFAT promoter control) is expressed. Briefly, 1.5×10^5 BMDCs or 2.5×10^5 MSCs were co-cultured with 5×10^4 B3Z cells treated with the mixing conditions of ovalbumin (OVA) and bile acid-NLS conjugates for overnight at 37° C. with 5% CO2. The following day, all cells were washed twice with PBS (pH 7.4), and the cell pellets were lysed by adding 100 μL of a lysis buffer containing 0.15 mM chlorophenol red-beta-D-galactopyranoside (CPRG) substrate (Calbiochem, La Jolla, Calif.), 0.125% NP40 (EMD Sciences, La Jolla, Calif.), 9 mM MgCl2 (Aldrich, USA) and 100 mM 2-mercaptoethanol in PBS. After a 5- or 24-h incubation at 37° C., absorbance was taken at 570 nm with 636 nm as the reference wavelength. For these experiments, OVA was re-suspended in PBS (pH 7.3) at 5-10 mg/mL. The different bile acid-NLS conjugates were re-suspended in H2O at 10 mg/mL. Bile acid-NLS conjugate: antigen mixtures were prepared at different molar ratios according to Table 2.
Variants of CA-SV40NLS were synthesized in order to explore structure-activity relationships relating to the antigen cross-presentation enhancing activity observed for this conjugate. More particularly, conjugates having different bile acids conjugated to the SV40NLS peptide (SEQ ID NO: 1) were synthesized and their effect on antigen presentation was evaluated by using the B3Z reporter system with the OVA antigen as described in Example 1. […] In FIG. 2, no increase in antigen cross-presentation over the antigen alone (“OVA”) was observed when OVA was mixed with either unconjugated cholic acid (“CA”) or SV40NLS peptide (“SV40NLS”), although lower sensitivity of the B3Z reporter system as compared to the OT-I CD8 T cell-based assay used in FIG. 1 may have been a factor.
Further variants of CA-SV40NLS were synthesized in which the SV40NLS peptide was replaced with peptides comprising other NLS's (Table 3) and the antigen presentation activities of the CA-NLS peptide conjugates were evaluated using the B3Z reporter system as described in Example 1. The following conjugate:antigen molar ratios were tested for each conjugate: 2:1, 4:1, 8:1, 12:1 and 22:1. […]

[1] = system: OVA-responding OT-I (CD8) cells; assay: Antigen cross-presentation assay: pulsed BMDCs co-cultured with OT-I CD8 T-cells, IFN-gamma by ELISA; type: cell-based, mouse; conditions: BMDCs pulsed 3 h with highest enhancer:OVA ratios tested; co-culture with OT-I CD8 T-cells; FIG. 1
Experimental: Mouse BMDCs were pulsed for 3 hours with antigen (OVA) alone, cholic acid (CA) alone, a cholic acid-NLS peptide conjugate (CA-SV40NLS) alone, different ratios of CA to antigen (CA:OVA=22:1, 12:1, 8:1, 4:1, and 2:1), or different ratios of an cholic acid-NLS peptide conjugate to antigen (CA-SV40NLS:OVA=22:1, 12:1, 8:1, 4:1, and 2:1). The pulsed BMDCs were then co-cultured with OT-I mouse-derived CD8 T-cells and IFN-gamma levels were quantified as a measure of cross presentation activity.
Mouse bone marrow derived dendritic cells (BMDCs) were generated by flushing the whole marrow from mouse femurs using RPMI™ 1640 supplemented with 10% fetal bovine serum (FBS), 50 U/mL Penicillin-Streptomycin, 2 mM L-glutamine, 10 mM HEPES, 1% MEM Non-essential Amino Acids, 1 mM Sodium Pyruvate, 0.5 mM beta-mercaptoethanol. […] Mature DCs were assessed by flow cytometry for their surface expression of CD3, CD19, NK1.1, CD11c, CD80, CD86, and I-Ab.
To evaluate antigen cross-presentation, cells were seeded at 25×10^3 cells per well in 24-well plates (Corning; Massachusetts, United States), then pulsed with antigens or antigen-containing mixtures at different concentrations for 3 h. […] After 72 hours, supernatants were collected and used to quantify cytokine production by commercial enzyme-linked immunosorbent assays (ELISAs). […]

GII.3 human norovirus = conditions: host intestinal cells; free bile acids; cited from earlier work

C[C@H](CCC(=O)O)[C@H]1CC[C@H]2[C@@H]3[C@H](O)C[C@@H]4C[C@H](O)CC[C@]4(C)[C@H]3C[C@H](O)[C@]12C [CA, cholic acid]
antigen cross-presentation (B3Z response) compared with OVA alone (B3Z cells): no increase
increase in the amount of IFN-gamma produced, as compared to BMDCs pre-pulsed with the OVA antigen alone [1]: up to 3 fold
effect on GII.3 human norovirus infection and replication (GII.3 human norovirus): increase GII.3 human norovirus infection and replication
